Test results from PMC11231141, “Ube3a unsilencer for the potential treatment of Angelman syndrome” (Nature Communications, 2024).
Read-outs that look alike come from different tables or passages of the source.

Assays:
UBE3A protein [1] = assay: western blot of UBE3A protein in HEK293T cells; format: cell-based, human; conditions: 1 µM, 48 h
Protocol: Human HEK293T cells were treated
Following the treatment, the
individual wells per treatment, as depicted in ( c). All data were normalized to GAPDH/ GAPD H
dimethyl sulfoxide; kDA – kilodalton. Source data and comprehensive statistics, including F-values, […]

paternal UBE3A-YFP = paternal UBE3A-YFP unsilencing, high-content imaging in mouse primary neurons (Ube3a m+/pYFP); format: cell-based; conditions: for Emax: Neuron, highest concentration with at least 90% neurons alive, read-out: EMAX (% patUBE3A-YFP+)
Protocol: We aimed to identify novel unsilencers of paternal Ube3a by employing a previously developed high-content small molecule screen. This screen was performed in primary neurons derived from knock-in mice harboring a yellow fluorescent protein (YFP) fused to the paternal allele of Ube3a[25], allowing for fluorescence-based identification of the paternal allele-specific expression of UBE3A-YFP (detected by a GFP antibody enhancement) (Fig. 1a and Supplementary Table 1). We screened >2800 compounds from a Pfizer chemogenetic library, which contains small molecules selected to cover a broad spectrum of pharmacological space. We screened small molecules at 1 μM concentration and used 0.3 μM topotecan, a topoisomerase inhibitor that can downregulate the Ube3a-ATS and unsilence the paternal Ube3a, as a positive control (Fig. 1b)[10]. Small molecules that increase the UBE3A-YFP signal represent putative paternal Ube3a unsilencers.
(§1) Immunofluorescence for high-content imaging analysis was performed as previously described with slight modifications. Following drug treatment at DIV7, primary neurons were fixed at DIV10 with 4% paraformaldehyde in PBS at room temperature (RT) for 10 min. After three brief washes in PBS, neurons were permeabilized with PBS/1% Triton-X-100 at RT for 10 min, followed by blocking with PBS including 5% normal goat serum and 0.2% Triton-X-100 (NGST) at RT. […] All acquired images were analyzed by CellProfiler[48]. The mean GFP signal from each drug-treated well was normalized to the average mean GFP signal from DMSO-treated neurons. […] Fluorescent images were acquired using a Nikon Ti2 eclipse fluorescence microscope (Nikon Instruments Inc.) and analyzed using Nikon NIS-Elements software (Nikon Instruments Inc.). Antibody-enhanced UBE3A-YFP fluorescence intensities were determined from DAPI and NeuN double-positive neurons in drug-treated wells and normalized to neurons in DMSO-treated wells. The cytotoxicity of a compound was determined by calculating the percentage of neurons (DAPI and NeuN double-positive cells) alive in drug-treated wells compared to the DMSO-treated wells. For determining the effectiveness of unsilencing, the percent neurons expressing GFP signal in neurons (DAPI and NeuN double-positive cells) in drug-treated wells was thresholded such that the percent GFP positive neurons in DMSO-treated wells was set to ~5%. Concentrations where more than 10% of neurons were dead compared to DMSO-treated wells were manually removed and the last included data point was set as a maximum efficacy. Sigmoidal curve fitting for the dose-response analysis was performed using GraphPad Prism software version 8.0 (GraphPad Software).

CDK2/cyclin E = tested on: CDK2/cyclin E; set-up: method as in PMID 15828833; conditions: read-out: IC50 against CDK2/cyclin E; cited from earlier work
UBE3A mRNA [2] = tested on: UBE3A mRNA; set-up: method as in Sen et al.3; conditions: 11-week human cortical organoids, 72 hours, 1M topotecan, ref Sen et al.3; cited from earlier work
UBE3A protein [3] = assay: western blot of UBE3A protein in Ube3a m-/p+ primary neurons; format: cell-based, mouse; conditions: 72 h at DIV7, 0.3 µM topotecan, 1 µM (S)-PHA533533, 0.1 µM 3, 0.3 µM (±)-4
Protocol: 2’ MOE gapmer antisense oligonucleotides (ASOs) designed to target mouse Cdk2 sequence […], Cdk5 sequence […], Top1 sequence […], and scrambled […] sequence as a negative control (Integrated DNA Technologies) were formulated in water and added to cultured cortical neurons grown on 6-well plates at DIV5 at a final concentration of 10 μM. Neurons were further cultured and treated at DIV7 with vehicle (0.1% DMSO) or the indicated compounds for 72 h. For western blot analysis, neurons were washed once with PBS and then lysed using RIPA buffer (50 mM Tris-HCl pH 8.0, 150 mM NaCl, 1% NP−40, 0.5% Na-deoxycholate, 0.5% SDS) and protease inhibitor cocktail (P8340, MilliporeSigma) on ice.

[4] = cytotoxicity (% viable DAPI/NeuN neurons vs DMSO) in mouse primary neurons; format: cell-based; conditions: primary cortical neurons from E15.5 mouse embryos, mean ± SEM, n = 3
Protocol: as §1

Snord115 = conditions: 72 h at DIV7; 0.3 µM topotecan, 1 µM (S)- or (R)-PHA533533, 0.1 µM 2, 0.1 µM 3, 0.3 µM (±)-4, 5 µM (S,R)-5
Protocol: (§2) Next, 1 ml of Neurobasal Plus medium (A3582901, ThermoFisher) containing 5% FBS (TMS-013-B; MilliporeSigma) was added to the cortical mixture to deactivate the papain and subsequently triturated. […] Isolated cortical neurons were plated onto poly-D-lysine coated 384-well plates at 2 × 10^4 cell/well for screening and dose-response assays, or 6-well plates at 1 × 10^6 cell/well for molecular and biochemical assays (western blot, ASO-dependent knock-down, and quantitative RT-PCR).
(§3) For RNA isolation, cultured cortical neurons were lysed using 350 μl of RLT lysis buffer (Qiagen) per well on a 6-well plate. For isolating RNA from mouse brain tissue, microdissected brain regions were snap-frozen in liquid nitrogen and stored at −80 °C until the day of RNA extraction, and then lysed using RLT lysis buffer containing 1% of β-mercaptoethanol. Total RNA was extracted from both cultured cells and brain tissue using RNeasy Mini kit (Qiagen). cDNA was synthesized from 1 μg of total RNA using qScript cDNA Supermix (Quantabio). 1/25 of synthesized cDNA was used per qPCR reaction together with PowerUp SYBR Green Master Mix (A25742, Applied Biosystems) and a specific primer pair (Table 2). qPCR was performed in a QuantStudio 5 Real-Time PCR system (Applied Biosystems). The specificity of the amplification products was verified by melting curve analysis. All qPCRs were conducted in technical triplicates, and the results were averaged for each sample, normalized to Gapdh expression, and analyzed using the comparative CT method (∆∆CT).

Snrpn = conditions: 72 h at DIV7; 0.3 µM topotecan, 1 µM (S)-PHA533533, 0.1 µM 2, 0.1 µM 3, 0.3 µM (±)-4, 5 µM (S,R)-5
Protocol: as §2, §3

Snord116 = conditions: 72 h at DIV7; 0.3 µM topotecan, 1 µM (S)-PHA533533, 0.1 µM 2, 0.1 µM 3, 0.3 µM (±)-4, 5 µM (S,R)-5
Protocol: as §2, §3

Ube3a mRNA [5] = conditions: Ube3a m-/p+ neurons, 72 h at DIV7; 0.3 µM topotecan, 1 µM (S)- or (R)-PHA533533, 0.1 µM 2, 0.1 µM 3, 0.3 µM (±)-4, 5 µM (S,R)-5
Protocol: as §2, §3

Ube3a-ATS = assay: quantitative RT-PCR of Ube3a-ATS in Ube3a m-/p+ primary neurons; format: cell-based, mouse; conditions: 72 h at DIV7; 0.3 µM topotecan, 1 µM (S)- or (R)-PHA533533, 0.1 µM 2, 0.1 µM 3, 0.3 µM (±)-4, 5 µM (S,R)-5

Compound	UBE3A protein levels vs DMSO (UBE3A protein [1])	paternal UBE3A-YFP immunofluorescent signal (paternal UBE3A-YFP)	Emax (paternal UBE3A-YFP; Mus musculus, 72 h, mean ± SEM) [%]	IC50 (CDK2/cyclin E) [nM]	increase of UBE3A mRNA levels (UBE3A mRNA [2]) [fold]	UBE3A protein levels vs DMSO (UBE3A protein [3])	paternal UBE3A-YFP immunofluorescent signal (paternal UBE3A-YFP; 0.3 μM topotecan, 1 μM (R)- or (S)-PHA533533, 72 h)	EC50 (paternal UBE3A-YFP; Mus musculus, Primary neuron, 72 h, mean ± SEM, n = 3) [nM]	CC50 at 72 h [4] [nM]	relative quantity of Snord115 vs DMSO (Snord115)	relative quantity of Snrpn vs DMSO (Snrpn)	relative quantity of Snord116 vs DMSO (Snord116)	Ube3a mRNA levels vs DMSO (Ube3a mRNA [5])	relative quantity of Ube3a-ATS vs DMSO (Ube3a-ATS)
C[C@H](C(=O)Nc1cc(C2CC2)[nH]n1)c1ccc(N2CCCC2=O)cc1 [(S)-PHA533533]	does not affect	high levels of paternal UBE3A-YFP	80 ± 8.41	55	–	–	–	–	–	–	–	–	–	–
CC[C@@]1(O)C(=O)OCc2c1cc1n(c2=O)Cc2cc3c(CN(C)C)c(O)ccc3nc2-1 [Topotecan, reference compound]	–	–	66.31 ± 0.45	–	1.8	significantly increased	high levels of paternal UBE3A-YFP	80 ± 20	2130 ± 620	significantly reduced	significantly reduced	without affecting	significantly increased	downregulated
